The record followed here is PubChem BioAssay (NCI).

Where “and” joins values, the source holds several entries; their conditions need not be identical. Equal entries are not always repeated.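 These data come from cells grown in 96-well plates and exposed to compound for 48 hours at five concentrations. GI50 marks 50% less growth. TGI is the concentration that stops growth completely.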 A value given as a limit tells only on which side of the number the result lay.

Assay in all cases: DTP human tumour cell line panel, 48 h
In experiment [1] the test system is MDA-N.
Experiment [2] has as its system CCRF-CEM leukemia.
For experiment [3], the system named is CAKI-1 renal.
The test system of experiment [4] is SF-539 CNS.
Experiment [5] concerns IGROV1 ovarian.
Experiment [6] deals with M14 melanoma.
The subject of experiment [7] is OVCAR-3 ovarian.
Experiment [8] has as its system HCC-2998 colon.
Experiment [9] deals with BT-549 breast.
The subject of experiment [10] is UO-31 renal.
The test system of experiment [11] is MOLT-4 leukemia.
Experiment [12] deals with MDA-MB-231 breast.

As a reminder, the TGI is the concentration giving total growth inhibition. Turning to `CC(=O)N[C@@H](Cc1ccc(O)cn1)C(=O)NCc1ccc(Cl)cc1`, the TGI in experiment [1], in experiment [2], in experiment [3], in experiment [4], in [5] and in experiment [6] was > 100 µM in each case. The TGI in [7], in experiment [8], in experiment [9], in experiment [10] and in experiment [11] was > 100 µM throughout.
For `Cc1ccc(S(=O)(=O)N/N=C2\C=CC3(CC2)C(=O)N(I)c2ccccc23)cc1` (configuration not stated), the TGI in [1], in [2], in experiment [3], in experiment [4], in [6] and in experiment [12] was > 100 µM in each case. The concentration for total growth inhibition (TGI) in experiment [7], in experiment [8], in experiment [10] and in [11] was > 100 µM in each case.
As for `Cc1c(C#N)c2nnn(-c3cccc(Cl)c3)c(=O)n2c1-c1ccccc1`, the TGI in [2] is > 100 µM; in experiment [3], > 100 µM; in [4], 10.4 µM; in [5], > 100 µM; in experiment [6], > 100 µM; in experiment [12], 6.1 µM. The TGI is 5.59 µM in experiment [7], 18.2 µM in experiment [8], > 100 µM in experiment [9] and > 100 µM in [10].
Take `C/C(=C\C(=O)Nc1ccc2n[nH]nc2c1)Nc1ccc2n[nH]nc2c1`: the TGI in experiment [2], in [3], in experiment [4], in experiment [5], in experiment [6] and in experiment [7] was > 100 µM throughout. The TGI in [8], in [10] and in experiment [11] was > 100 µM throughout.
Turning to `CN(C)C(=O)C(F)(F)C(c1ccccc1Br)C1C(=O)N(C)C(=O)N(C)C1=O` (configuration not stated), the TGI in experiment [2], in experiment [3], in experiment [6], in experiment [12], in experiment [7] and in experiment [8] was > 100 µM throughout. For the same compound, the TGI in [9] and in experiment [10] was > 100 µM each time.
Take `COc1ccc(OC)c2c(C(C)=O)cccc12`: the TGI in experiment [2], in [4], in [5], in [12], in experiment [7] and in experiment [8] was > 100 µM in each case. In addition, the concentration for total growth inhibition (TGI) in experiment [10] and in [11] was > 100 µM each time.
Consider `CC1=NN(c2nc(N)nc(CO)n2)C(C)(C)C1`, for which the TGI in [2], in experiment [3], in experiment [4], in [5], in [6] and in experiment [12] was > 100 µM each time. Also, the TGI in experiment [7], in [8], in [9], in [10] and in experiment [11] was > 100 µM each time.
What is called GI50 is the concentration at which growth is held to half of that of the control. Take `CCCC(=O)Nc1cc(C(=O)N2C[C@H]3C[C@@]34C2=CC(=O)c2[nH]cc(C)c24)n(COC)c1`: the GI50 in experiment [1] is 0.164 µM; in experiment [3], 0.175 µM; in experiment [4], 0.118 µM; in experiment [6], 0.167 µM; in experiment [8], 0.14 µM; in experiment [9] it was 0.159 µM. For the same compound, the GI50 in experiment [10] is 0.561 µM. Also, the TGI in [1] is 1.59 µM and 0.316 µM; in experiment [2] it was 0.105 µM and 0.245 µM; in experiment [3] it was 1.03 µM and 0.52 µM; in experiment [12], 3 µM; in experiment [7], 0.688 µM; in [8], 0.361 µM and 0.336 µM. Besides, the TGI in experiment [10] was determined as 3.64 µM.
For `C[C@]12CC[C@H]3[C@@H](CC=C4C[C@@H](O)CC[C@@]43C)[C@@H]1C/C(=C\c1cccnc1)[C@@H]2O`, the TGI in experiment [1] was > 100 µM; in experiment [2] it was > 100 µM; in [4] it was 81.6 µM; in [5] it was > 100 µM; in experiment [6], > 100 µM; in experiment [12], 57.8 µM. Moreover, the results for the TGI in experiment [9] and in [10] were 48.9 µM and > 100 µM, respectively.
Consider `Nc1nc(SCc2ccccc2Cl)c2ncn(C3OC(CO)C(O)C3O)c2n1` (configuration not stated), for which the TGI in experiment [2], in [3], in [4], in [5], in experiment [6] and in [7] was > 100 µM in each case. Further, the TGI in experiment [8], in experiment [10] and in [11] was > 100 µM each time.
For `Nc1nc(Cl)c2ncn(CCCC(c3ccccc3)P(=O)(O)O)c2n1` (configuration not stated), the TGI in experiment [2], in experiment [3], in [4], in experiment [5], in [6] and in experiment [7] was > 100 µM throughout. Further, the TGI in experiment [8] and in experiment [10] was > 100 µM each time.
In the case of `CSc1cc(Cl)c(C)cc1S(=O)(=O)NC(=O)NNc1ccc(C)cc1`, the TGI in [1], in [2], in experiment [3], in [4], in experiment [5] and in [6] was > 100 µM throughout. Moreover, the TGI was > 100 µM in experiment [12], > 100 µM in experiment [7], 66.1 µM in experiment [8] and > 100 µM in [11].
`O=C1Cc2cc3ccccc3nc2-c2ccccc2N1`: the TGI in [2], in experiment [3], in experiment [4], in [5], in experiment [6] and in [12] was > 100 µM in each case. Besides, the TGI in experiment [7] was > 100 µM; in [8] it was 90.4 µM; in [9], > 100 µM; in experiment [10], > 100 µM; in experiment [11] it was > 100 µM.
